US5124150A

What was measured:
uninfected CEM cells = conditions: human, 7200 min
Procedure: The cells and the virus were grown in LAV/CEM medium. The medium consists of RPMI 1640, supplemented with 1% L-glutamine, 100 U/ml of Penicillin, 100 μg/ml Streptomycin, 2 μg/ml Polybrene and 10% heat-inactivated fetal bovine serum (HyClone Labs).
The toxicities of the drugs were tested against uninfected CEM cells. The CEM cells were plated as described above, and culture for five days in the presence or absence of drugs. On day five 1 μCi/well of ^3 H-thymidine was added, and cells were harvested 3 hours later. The results are expressed as toxic dose 50 (TD50) and represent the amount of drug necessary to reduce the cell proliferation by 50% as measured through thymidine incorporation.

HIV antigen = assay: expression of HIV antigen in infected MT-4 cells by immunofluorescence; type: cell-based; conditions: HIV-infected MT-4 cells; concentration higher than 50 μg/ml
Procedure: Expression of HIV antigen was examined by immunofluorescence. When MT-4 cells were infected with HIV, viral antigen positive cells increased with incubation time and all the cells became positive on day 6 after infection.

[1] = system: reverse transcriptase (RTase) derived from avian myeloblastosis virus (AMV); type: biochemical; conditions: concentrations higher than 3 μg/ml; 1 unit of AMV RTase
CEM-SS cells = assay: cellular toxicity in CEM-SS cells, XTT assay; type: cell-based; conditions: human, 144 h
Source text: CEM-SS cells were obtained from Owen Weislow at the National Cancer Institute.

solubility in solvents = type: physicochemical
[2] = system: human immunodeficiency virus (HIV) LAV/BRU; conditions: CEM-F cells; reduces viral replication by 50%
Procedure: AZT was included as a reference compound. The methodology used in this assay is described below:
The cells and the virus were grown in LAV/CEM medium. The medium consists of RPMI 1640, supplemented with 1% L-glutamine, 100 U/ml of Penicillin, 100 μg/ml Streptomycin, 2 μg/ml Polybrene and 10% heat-inactivated fetal bovine serum (HyClone Labs). […] The LAV/BRU of human immunodeficiency virus (HIV) was obtained from Dr. L. Montagnier, Institute Pasteur, Paris, France. The virus was adapted to CEM cells, and infectious virus stocks were stored as cell-free supernatant fluids in 1 ml aliquots in liquid nitrogen. The titer of the stock was determined by an end point titration method using CEM cells in 96-well microtiter plates. The titration was done with ten replicates for each point, and the 50% tissue culture infective dose (TCID50) was calculated using the method of Reed and Muench (Amer. J. Hygiene, 27/3 (1938) 493-497).
25 The CEM cells (1.5×10^5 cells/ml) were placed in 96-well plates and incubated with virus for 45 minutes. After 45 minutes each compound was added in quadruplicate. […] The OD readings (absorbance at 450/630 nm) fall into three categories: Experimentals=values from wells containing cells, viral inoculum and drug; Controls=values from wells with cells and virus (100%); and Background=values from wells with viral inoculum alone. […]

| SMILES | TD50, thymidine incorporation (uninfected CEM cells) | HIV antigen positive cells (HIV antigen) | inhibition of AMV RTase activity [1] | TD50, XTT assay (CEM-SS cells) | solubility in dimethylformamide and dimethyl sulfoxide (solubility in solvents) | ED50, p24gag antigen capture assay [2] |
| --- | --- | --- | --- | --- | --- | --- |
| Cc1cn([C@H]2C[C@H](N=[N+]=[N-])[C@@H](CO)O2)c(=O)[nH]c1=O [AZT, reference compound] | 4.2 µg |  |  |  |  |  |
| C/C1=C\C=C\C2(C)C=C(CO[C@H]3O[C@H](CO)[C@H](O)[C@H](O)[C@H]3O)C(C)CC23OC(O)C(C3=O)C(O)/C=C/C2(C)C=C(C=O)C(C)CC23OC(O)C(C3=O)C(O)/C(C)=C/C=C/C2C=C(CO[C@H]3O[C@H](CO)[C@H](O)[C@H](O)[C@H]3O)C(C)CC23OC(O)C(C3=O)C(O)/C=C/C2(C)C=C(C=O)C(C)CC23OC(O)C(C3=O)C1O (some centres unmarked) | > 100 µg | less than 1% | more than 95% | 300 µg/mL | soluble | 3.2 µg |
| C/C1=C\C=C\C2C=C(CO[C@H]3O[C@H](CO)[C@H](O)[C@H](O)[C@H]3O)C(C)CC23OC(O)C(C3=O)C(O)/C=C/C2(C)C=C(CO)C(C)CC23OC(O)C(C3=O)C(O)/C(C)=C/C=C/C2(C)C=C(CO[C@H]3O[C@H](CO)[C@H](O)[C@H](O)[C@H]3O)C(C)CC23OC(O)C(C3=O)C(O)/C=C/C2(C)C=C(C=O)C(C)CC23OC(O)C(C3=O)C1O (some centres unmarked) | > 100 µg |  |  | 200 µg/mL | soluble | 2.5 µg |
